# Patent US10106502B2, “Direct inhibitors of Keap1-Nrf2 interaction as antioxidant inflammation modulators” (Rutgers, The State University of New Jersey, priority 2011, dated 2018)
# pEC50, pIC50, pKd: −log10 of the molar value.
# Legend:
# Keap1 Kelch domain [1] = biological target: T1, Keap1 Kelch domain (Homo sapiens, UniProt Q14145); assay: SPR-based solution competition assay; type: binding; design: 40 nM of Keap1 Kelch domain was incubated in the presence of test compounds; inferred from vector pET15b and Ni-NTA purification of the one described Kelch preparation) (N); made in house; host or cells: E. coli BL21 (DE3)
# T1 sequence (Q14145 321-609 limits assumed): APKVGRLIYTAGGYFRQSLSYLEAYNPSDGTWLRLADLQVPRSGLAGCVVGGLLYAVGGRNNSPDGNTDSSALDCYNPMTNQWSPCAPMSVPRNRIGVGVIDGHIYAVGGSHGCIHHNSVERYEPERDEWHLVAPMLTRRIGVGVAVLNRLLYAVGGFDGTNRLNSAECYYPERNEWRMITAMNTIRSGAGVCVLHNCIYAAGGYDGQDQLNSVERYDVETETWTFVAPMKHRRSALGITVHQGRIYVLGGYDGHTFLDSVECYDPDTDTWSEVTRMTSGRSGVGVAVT
# Keap1 Kelch domain [2] = biological target: T1, Keap1 Kelch domain; assay: FP assay, dose-response retest of HTS hits; type: binding; design: Human Keap1 Kelch domain protein was cloned into expression vector pET15b; inferred from vector pET15b and Ni-NTA purification) (N); made in house; host or cells: E. coli BL21 (DE3)
# Procedure: Human Keap1 Kelch domain protein was cloned into expression vector pET15b and transformed into E. coli BL21 (DE3) strain. The protein was purified through Ni-NTA affinity column. Purified protein was stored in the buffer containing 20 mM HEPES (pH7.4), 5 mM DTT at −80° C.
# 2) 60 mL of 8 μM Ac-9mer-Nrf2 was prepared by taking 0.48 mL of 1 mM Ac-9mer-Nrf2 in 100% DMSO in 60 mL FP buffer 3) 500 mL of 400 nM Keap1 Kelch domain was prepared by taking 9 mL of 0.75 mg/mL Keap1 Kelch domain in 500 mL FP buffer.
# 10 nM FITC-9mer-Nrf2-NH2, 100 nM Kelch Kelch domain.
# The first of these assays is an FP assay that uses a fluorescently labeled Nrf2 peptide amide as the probe and directly measures the displacement of fluorescent probe from the Nrf2-binding site of Keap1 Kelch domain by inhibitors via changes in fluorescence anisotropy. […] The second of the fluorescence-based assays is a time-resolved fluorescence energy transfer (TR-FRET) assay which uses an in situ labeling method we recently developed to attach a lanthanide chelate to Keap1 Kelch domain as the FRET donor and fluorescein-labeled Nrf2 peptide as the acceptor. One advantage of the TR-FRET assay is that it is less susceptible to compound interference than an FP assay.
# [3] = test system: CellSensor® ARE-bla Hep G2 cell line; assay: cell-based ARE β-lactamase reporter assay; design: species or system human
# [4] = Keap1-retest in dose, 8-point FP dose-response of HTS hits
pIC50 (Keap1 Kelch domain [2]; [4]),Structure (SMILES),other results
–,O=C(O)[C@@H]1CCCC[C@@H]1C(=O)N1CCc2ccccc2C1CN1C(=O)c2ccccc2C1=O (relative stereo) [LH601C/D],ARE-inducing activity (in words) [3]: inactive
–,"O=C(O)[C@H]1CCCC[C@H]1C(=O)N1CCCCC1CN1C(=O)c2ccccc2C1=O (relative stereo) [LH641, cis-2-(2-((1,3-dioxoisoindolin-2-yl)methyl)piperidine-1-carbonyl)cyclohexane carboxylic acid]",binding to Keap1 Kelch domain (in words) (Keap1 Kelch domain [1]): complete loss of binding
3.87,"NS(=O)(=O)c1cc(C(=O)NC2CCSc3ccccc32)ccc1Cl (stereo not drawn) [BRD-A83249228-001-07-1, 3-(Aminosulfonyl)-4-chloro-N-(3,4-dihydro-2H-1-benzothiopyran-4-yl)benzamide]",–
4.59,"COc1ccc(C(C)=NNc2ccc([N+](=O)[O-])cc2S(=O)(=O)Nc2ccccc2C(=O)O)c(OC)c1 [BRD-K09114961-001-03-6, 2-[[[2-[2-[1-(2,4-dimethoxyphenyl)ethylidene]hydrazinyl]-5-nitrophenyl]sulfonyl]amino] benzoic acid]",–
4.72,"O=C(O)c1cc(N2C(=O)C=CC2=O)cc(N2C(=O)C=CC2=O)c1 [BRD-K11951445-001-04-1, 3,5-Bis(2,5-dihydro-2,5-dioxo-1H-pyrrol-1-yl)-benzoic acid]",–
4.04,"COc1cc(NS(=O)(=O)c2ccc(NC(=S)NC(=O)/C=C/c3ccco3)cc2)ncn1 [BRD-K42553821-001-05-9, 3-(2-Furanyl)-N-[[[4-[[(6-methoxy-4-pyrimidinyl)amino]sulfonyl]phenyl]amino]-thioxomethyl]-2-Propenamide]",–
4.26,"O=C1CCCc2oc3c(cc(NS(=O)(=O)c4ccc5c6c(cccc46)C(=O)N5)c4ccccc43)c21 [BRD-K91732811-001-06-9, 1,2-Dihydro-2-oxo-N-(7,8,9,10-tetrahydro-7-oxobenzo[b]naphtho[2,1-d]furan-5-yl) benz[cd]indole-6-sulfonamide]",–

Structure (SMILES),pIC50 (Keap1 Kelch domain [2]; [4]),other results
"Cc1ccc(S(=O)(=O)Nc2cc(C(C(=O)OC(C)C)C(=O)C(F)(F)F)c(O)c3ccccc23)c(C)c1 (racemic) [LH602, 4-[[(2,4-Dimethylphenyl)sulfonyl]amino]-1-hydroxy-α-(2,2,2-trifluoroacetyl)-2-naphthaleneacetic acid, 1-methylethyl ester]",5.57,"pKd (Keap1 Kelch domain [1]; Keap1 Kelch domain, SPR, read-out: Kd (Keap1 binding affinity)): 5.77; pIC50 (Keap1 Kelch domain [2]; resynthesized compound): 5.52; pEC50 ([3]; Homo sapiens, HepG2, read-out: EC50 of ARE-inducing activity): 4.74 to 4.80"
"CC1=C[C@@H]2c3cccc4[nH]cc(c34)C[C@H]2N(C)C1 [BRD-K56215778-001-06-9, 8,9-Didehydro-6,8-dimethyl-ergoline]",4.43,–
